The record followed here is patent US6403645B2, “Antidepressant effect of norepinephrine uptake 2 inhibitors and combined medications including them” (President and Fellows of Harvard College, priority 2000, dated 2002).

The nature of this experiment: Urinary levels of norepinephrine and normetanephrine in depressed patients treated with desipramine. Format: in vivo. The text has this: (Plasma levels of normetanephrine were not measured in these studies.)
The mark [1] stands for this setting: by the fourth week of treatment.

SMILES strings stand for the structures.

Regarding `CNCCCN1c2ccccc2CCc2ccccc21` [desipramine], under “after one week of treatment”, the “urinary levels of norepinephrine” value was “small decreases” and the “urinary levels of normetanephrine” value is reported as “small decreases”. Further, under setting [1], the “urinary levels of norepinephrine” value is “statistically significant increases” and the “urinary levels of normetanephrine” value was “statistically significant increases”.
